In one assay the target is T1, EGFR (d746-750) (Homo sapiens, UniProt P00533, DEL746-750).
T1 construct: purchased SignalChem E10-122JG
The experiment in a line: Biochemical EGFR inhibition assay (Caliper mobility shift), EGFR (d746-750). Particulars: biochemical Caliper mobility shift assay, EGFR Exon 19-del enzyme; read-out: Enz EGFR Exon 19-del IC50. In outline:
(§1)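 Mobility-shift readout: phosphorylated and unphosphorylated 5-FAM peptide (2.5 µM) separated electrophoretically. Reactions at room temperature (25 °C), 1.0 mM ATP or ATP Km, HEPES pH 7.5 with MgCl2, Brij-35, DTT and 1.0% DMSO; terminated at 10–20% turnover with 35 mM EDTA. Apparent IC50 fitted.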

Assay [1] deals with intracellular phosphorylation of EGFR (Tyr1068) in PC-9 cells (Homo sapiens, UniProt P00533, DEL746-750). Kind of assay: PC-9 pEGFR AlphaLISA assay. The class given is cell-based. Particulars: 4 hours incubation, read-out: Phos EGFR PC9 IC50. An outline of the steps: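 PC-9 cells (EGFR del746-750) in phenol-free DMEM/10% FBS, adhered overnight, then exposed to 10-point 4-fold compound dilutions for 4 h at 37 °C. Lysates assayed for pEGFR Tyr1068 by AlphaLISA SureFire Ultra; IC50 from percent pEGFR inhibition vs log concentration.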
Chain of intracellular phosphorylation of EGFR (Tyr1068) in PC-9 cells (P00533 with tags, fused parts or gaps DEL746-750): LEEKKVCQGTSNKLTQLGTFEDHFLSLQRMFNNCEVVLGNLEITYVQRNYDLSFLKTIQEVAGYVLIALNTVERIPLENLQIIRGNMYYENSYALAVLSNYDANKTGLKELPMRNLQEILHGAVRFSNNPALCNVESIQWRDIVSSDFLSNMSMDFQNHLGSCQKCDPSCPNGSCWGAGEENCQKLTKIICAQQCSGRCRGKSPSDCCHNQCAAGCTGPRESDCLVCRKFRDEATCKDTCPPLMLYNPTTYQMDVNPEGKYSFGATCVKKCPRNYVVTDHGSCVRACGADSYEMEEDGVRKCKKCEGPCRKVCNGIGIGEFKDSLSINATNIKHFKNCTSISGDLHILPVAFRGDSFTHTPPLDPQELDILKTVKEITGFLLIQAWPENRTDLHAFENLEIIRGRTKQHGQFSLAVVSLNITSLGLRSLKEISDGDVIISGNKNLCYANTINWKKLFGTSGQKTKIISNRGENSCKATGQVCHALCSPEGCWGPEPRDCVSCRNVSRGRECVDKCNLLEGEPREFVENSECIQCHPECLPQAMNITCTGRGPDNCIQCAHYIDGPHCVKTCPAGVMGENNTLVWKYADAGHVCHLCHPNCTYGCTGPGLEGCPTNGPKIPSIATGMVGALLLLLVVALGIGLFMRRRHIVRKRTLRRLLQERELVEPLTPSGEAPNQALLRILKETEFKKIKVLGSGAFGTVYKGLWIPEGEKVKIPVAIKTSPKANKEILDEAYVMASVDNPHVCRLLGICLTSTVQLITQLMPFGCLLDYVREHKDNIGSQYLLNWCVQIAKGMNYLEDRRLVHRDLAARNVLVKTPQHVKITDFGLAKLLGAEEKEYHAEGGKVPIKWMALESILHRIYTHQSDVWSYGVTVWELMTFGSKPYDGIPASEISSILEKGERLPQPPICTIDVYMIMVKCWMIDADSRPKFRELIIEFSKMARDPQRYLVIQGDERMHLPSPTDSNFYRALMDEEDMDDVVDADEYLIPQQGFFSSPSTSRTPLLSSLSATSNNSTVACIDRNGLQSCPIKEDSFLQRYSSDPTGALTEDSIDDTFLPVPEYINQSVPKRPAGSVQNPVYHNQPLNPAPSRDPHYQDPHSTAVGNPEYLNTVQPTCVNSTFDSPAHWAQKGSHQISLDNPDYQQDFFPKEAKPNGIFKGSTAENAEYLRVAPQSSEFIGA

The target of a further assay is T2, EGFR L858R (Homo sapiens, UniProt P00533, L858R).
T2 construct: purchased SignalChem E10-122BG
T2 sequence (P00533 25-1210 L858R): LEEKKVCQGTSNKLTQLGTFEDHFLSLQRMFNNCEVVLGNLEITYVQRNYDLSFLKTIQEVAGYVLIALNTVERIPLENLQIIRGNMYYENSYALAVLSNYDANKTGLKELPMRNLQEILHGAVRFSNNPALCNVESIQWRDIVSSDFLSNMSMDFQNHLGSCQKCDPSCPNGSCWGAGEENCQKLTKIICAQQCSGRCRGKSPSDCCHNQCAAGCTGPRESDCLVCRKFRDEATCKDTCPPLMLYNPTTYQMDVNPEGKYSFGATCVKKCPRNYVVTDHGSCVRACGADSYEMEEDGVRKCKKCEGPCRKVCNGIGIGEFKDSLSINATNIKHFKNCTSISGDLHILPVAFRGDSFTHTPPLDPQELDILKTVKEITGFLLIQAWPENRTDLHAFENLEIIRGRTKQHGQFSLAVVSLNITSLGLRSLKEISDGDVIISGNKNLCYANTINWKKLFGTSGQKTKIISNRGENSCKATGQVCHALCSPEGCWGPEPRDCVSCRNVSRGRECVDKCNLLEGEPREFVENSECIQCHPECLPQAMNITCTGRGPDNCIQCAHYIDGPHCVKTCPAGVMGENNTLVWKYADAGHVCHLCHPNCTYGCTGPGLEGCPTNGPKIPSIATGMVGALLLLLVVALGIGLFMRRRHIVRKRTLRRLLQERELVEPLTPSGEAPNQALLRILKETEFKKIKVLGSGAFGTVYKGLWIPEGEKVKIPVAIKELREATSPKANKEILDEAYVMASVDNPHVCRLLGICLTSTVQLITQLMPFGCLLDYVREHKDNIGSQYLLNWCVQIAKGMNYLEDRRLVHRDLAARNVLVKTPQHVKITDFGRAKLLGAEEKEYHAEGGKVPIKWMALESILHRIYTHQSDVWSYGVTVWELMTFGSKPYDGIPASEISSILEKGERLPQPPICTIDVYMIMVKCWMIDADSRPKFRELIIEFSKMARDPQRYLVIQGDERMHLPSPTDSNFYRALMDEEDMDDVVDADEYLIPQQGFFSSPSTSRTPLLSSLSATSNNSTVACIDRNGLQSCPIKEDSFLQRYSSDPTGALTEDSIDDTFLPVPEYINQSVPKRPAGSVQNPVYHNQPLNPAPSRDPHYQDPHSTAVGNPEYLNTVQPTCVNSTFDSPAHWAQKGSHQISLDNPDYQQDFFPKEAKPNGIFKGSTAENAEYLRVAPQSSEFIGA
The experiment in a line: Biochemical EGFR inhibition assay (Caliper mobility shift), EGFR L858R. Particulars: biochemical Caliper mobility shift assay, EGFR L858R enzyme; read-out: Enz EGFR L858R IC50. An outline of the steps:
as §1

pIC50: −log10 of the molar value.

T1 sequence (P00533 with tags, fused parts or gaps DEL746-750 limits assumed): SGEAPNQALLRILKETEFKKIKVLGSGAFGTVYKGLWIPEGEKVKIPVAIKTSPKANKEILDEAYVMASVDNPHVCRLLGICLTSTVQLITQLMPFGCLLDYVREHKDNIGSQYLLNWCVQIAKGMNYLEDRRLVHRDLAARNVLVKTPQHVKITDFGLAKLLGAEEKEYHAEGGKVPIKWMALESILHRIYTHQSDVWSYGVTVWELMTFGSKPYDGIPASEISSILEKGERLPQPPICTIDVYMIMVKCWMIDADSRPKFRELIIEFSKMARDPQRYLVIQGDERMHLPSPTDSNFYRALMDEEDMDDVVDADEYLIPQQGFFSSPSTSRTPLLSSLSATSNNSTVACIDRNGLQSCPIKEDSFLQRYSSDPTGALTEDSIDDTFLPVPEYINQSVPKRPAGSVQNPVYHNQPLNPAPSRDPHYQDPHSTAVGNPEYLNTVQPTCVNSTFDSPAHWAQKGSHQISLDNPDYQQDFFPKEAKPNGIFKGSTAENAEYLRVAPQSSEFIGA

Turning to `Cn1cc(-c2cc(OCC3CCOC3)c3c(Nc4ccc5ncsc5c4)ncnc3c2)cn1` (single isomer, unassigned) [Example 41], the pIC50 (commonly the negative decadic logarithm of the IC50, by convention in mol/L) is not below 8.00 on EGFR (d746-750), 7.30 to 8.00 in assay [1] and not below 8.00 on EGFR L858R.

With `C[C@@H](Oc1cc(-c2cnn(C(C)(C)CO)c2)cc2ncnc(Nc3ccc4ncsc4c3)c12)C1COC1` (single isomer, unassigned) [Example 291], the pIC50 (on EGFR (d746-750); in assay [1]; at EGFR L858R) was not below 8.00 throughout.

For `COc1nn(C)cc1-c1cc(OC2COC2)c2c(Nc3ccc4ncsc4c3)ncnc2c1` [Example 18, N-(7-(3-methoxy-1-methyl-1H-pyrazol-4-yl)-5-(oxetan-3-yloxy)quinazolin-4-yl)benzo[d]thiazol-6-amine], the pIC50 (at EGFR (d746-750); in assay [1]; at EGFR L858R) was not below 8.00 each time.

In the case of `Cn1cc(-c2cc(O[C@@H]3CC[C@@H](O)C3)c3c(Nc4ccc5ncsc5c4)ncnc3c2)cn1` [Example 410, (1R,3R)-3-((4-(benzo[d]thiazol-6-ylamino)-7-(1-methyl-1H-pyrazol-4-yl)quinazolin-5-yl)oxy)cyclopentan-1-ol], the pIC50 (at EGFR (d746-750); in assay [1]; at EGFR L858R) was not below 8.00 in each case.

As to `C[C@H](CN(C)C)Oc1cc(N2CC[C@H](C(C)(C)O)C2)cc2ncnc(Nc3ccc4ncsc4c3)c12` [Example 181, 2-((S)-1-(4-(benzo[d]thiazol-6-ylamino)-5-(((R)-1-(dimethylamino)propan-2-yl)oxy)quinazolin-7-yl)pyrrolidin-3-yl)propan-2-ol], the pIC50 (at EGFR (d746-750); in assay [1]; at EGFR L858R) was not below 8.00 throughout.

For `CN1CCC2(COC2)[C@H](Oc2cc(-c3cnn(C)c3)cc3ncnc(Nc4ccc5ncsc5c4)c23)C1` (single isomer, unassigned) [Example 354], the pIC50 at EGFR (d746-750) was not below 8.00; in assay [1], 7.30 to 8.00; at EGFR L858R, 7.30 to 8.00.

With `C[C@H](Oc1cc(-c2cnn(C)c2)cc2ncnc(Nc3ccc4ncsc4c3F)c12)C(=O)N1CCOCC1` (single isomer, unassigned) [Example 282], the pIC50 (on EGFR (d746-750); in assay [1]; on EGFR L858R) was not below 8.00 each time.

In the case of `CCn1cc(-c2cc(OC3CCN(C4COC4)CC3)c3c(Nc4ccc5ncsc5c4)ncnc3c2)cn1` [Example 307, N-(7-(1-ethyl-1H-pyrazol-4-yl)-5-((1-(oxetan-3-yl)piperidin-4-yl)oxy)quinazolin-4-yl)benzo[d]thiazol-6-amine], the pIC50 (on EGFR (d746-750); in assay [1]; on EGFR L858R) was not below 8.00 each time.

With `COc1nn(C)cc1-c1cc(OC2CC2)c2c(Nc3ccc4ncsc4c3)ncnc2c1` [Example 77, N-(5-cyclopropoxy-7-(3-methoxy-1-methyl-1H-pyrazol-4-yl)quinazolin-4-yl)benzo[d]thiazol-6-amine], the pIC50 (on EGFR (d746-750); in assay [1]; on EGFR L858R) was not below 8.00 each time.

Turning to `Cn1cc(-c2cc(OC3(C)CC3)c3c(Nc4ccc5ncsc5c4)ncnc3c2)cn1` [Example 57, N-(7-(1-methyl-1H-pyrazol-4-yl)-5-(1-methylcyclopropoxy)quinazolin-4-yl)benzo[d]thiazol-6-amine], the pIC50 (on EGFR (d746-750); in assay [1]; at EGFR L858R) was not below 8.00 throughout.

`CO[C@@H]1CCNC[C@H]1Oc1cc(-c2cnn(C)c2)cc2ncnc(Nc3ccc4ncsc4c3)c12` (single isomer, unassigned) [Example A37]: the pIC50 at EGFR (d746-750) was not below 8.00; in assay [1], 7.30 to 8.00; on EGFR L858R, not below 8.00.

With `CCN1CCC(Oc2cc(-c3cnn(C)c3)cc3ncnc(Nc4ccc5ncsc5c4)c23)C1=O` (racemic) [Example 58, (rac)-3-((4-(benzo[d]thiazol-6-ylamino)-7-(1-methyl-1H-pyrazol-4-yl)quinazolin-5-yl)oxy)-1-ethylpyrrolidin-2-one], the pIC50 (on EGFR (d746-750); in assay [1]; on EGFR L858R) was not below 8.00 in each case.

Turning to `CO[C@@H]1CCN(C)C[C@H]1Oc1cc(-c2cnn(C)c2)cc2ncnc(Nc3ccc4ncsc4c3)c12` (single isomer, unassigned) [Example A39], the pIC50 at EGFR (d746-750) is not below 8.00; in assay [1], less than 7.30; at EGFR L858R, 7.30 to 8.00.

As for `CN1CC[C@H](Oc2cc(-c3cnn(C)c3)cc3ncnc(Nc4ccc5ncsc5c4)c23)[C@@H](F)C1` (single isomer, unassigned) [Example 344], the pIC50 (at EGFR (d746-750); in assay [1]; on EGFR L858R) was not below 8.00 throughout.

Regarding `C[C@@H](Oc1cc(-c2cnn(C)c2)cc2ncnc(Nc3ccc4ncsc4c3)c12)C1CN(C)C1` (single isomer, unassigned) [Example 384], the negative logarithm of the IC50 (pIC50) (on EGFR (d746-750); in assay [1]; at EGFR L858R) was 7.30 to 8.00 each time.

Take `Cn1cc(-c2cc(OC3CCOC3)c3c(Nc4ccc5ncsc5c4)ncnc3c2)cn1` (stereo not drawn) [Example 415, N-(7-(1-methyl-1H-pyrazol-4-yl)-5-((tetrahydrofuran-3-yl)oxy)quinazolin-4-yl)benzo[d]thiazol-6-amine]: the pIC50 on EGFR (d746-750) is not below 8.00; in assay [1], 7.30 to 8.00; at EGFR L858R, not below 8.00.

On to `C[C@@H](Oc1cc(-c2cnn(C)c2)cc2ncnc(Nc3ccc4ncsc4c3)c12)[C@H](C)N(C)C` (single isomer, unassigned) [Example 145], for which the pIC50 (on EGFR (d746-750); in assay [1]; at EGFR L858R) was not below 8.00 in each case.

Consider `C[C@H](CN(C)C)Oc1cc(-c2cnn(C)c2)cc2ncnc(Nc3ccc4ncsc4c3F)c12` [Example 140, (R)-N-(5-((1-(dimethylamino)propan-2-yl)oxy)-7-(1-methyl-1H-pyrazol-4-yl)quinazolin-4-yl)-7-fluorobenzo[d]thiazol-6-amine], for which the pIC50 (on EGFR (d746-750); in assay [1]; at EGFR L858R) was not below 8.00 in each case.

Consider `COCC[C@@H](C)Oc1cc(-c2cnn(C)c2)cc2ncnc(Nc3ccc4ncsc4c3F)c12` (single isomer, unassigned) [Example 108], for which the pIC50 (at EGFR (d746-750); in assay [1]; on EGFR L858R) was not below 8.00 in each case.

Regarding `CN1CCC[C@@H](Oc2cc(-c3cnn(C)c3)cc3ncnc(Nc4ccc5ncsc5c4)c23)C1` (single isomer, unassigned) [Example 47], the pIC50 is not below 8.00 at EGFR (d746-750), 7.30 to 8.00 in assay [1] and not below 8.00 at EGFR L858R.

Consider `C[C@@H](Oc1cc(N2CCN(C)CC2)cc2ncnc(Nc3ccc4ncsc4c3F)c12)C1COC1` (single isomer, unassigned) [Example 94], for which the pIC50 is not below 8.00 on EGFR (d746-750), 7.30 to 8.00 in assay [1] and not below 8.00 at EGFR L858R.

Take `COc1cn(C)nc1-c1cc(O[C@H](C)C2COC2)c2c(Nc3ccc4ncsc4c3)ncnc2c1` (single isomer, unassigned) [Example 121]: the pIC50 on EGFR (d746-750) is not below 8.00; in assay [1], 7.30 to 8.00; at EGFR L858R, not below 8.00.

On to `COC[C@@H](C)Oc1cc(N2CCN(C)C[C@H]2C)cc2ncnc(Nc3ccc4ncsc4c3)c12` (single isomer, unassigned) [Example 211], for which the pIC50 at EGFR (d746-750) is 7.30 to 8.00; in assay [1], less than 7.30; at EGFR L858R it was less than 7.30.

As to `COc1cc2ncnc(Nc3ccc4ncsc4c3)c2cc1-c1cnn(C2CCN(C)C[C@H]2F)c1` (single isomer, unassigned) [Example 166], the pIC50 (at EGFR (d746-750); in assay [1]; on EGFR L858R) was not below 8.00 in each case.

For the molecule `Cn1cc(-c2cc(O[C@H]3CC[C@@H](N(C)C)CC3)c3c(Nc4ccc5ncsc5c4)ncnc3c2)cn1` [Example 22, N-(5-(((1s,4s)-4-(dimethylamino)cyclohexyl)oxy)-7-(1-methyl-1H-pyrazol-4-yl)quinazolin-4-yl)benzo[d]thiazol-6-amine], the pIC50 (on EGFR (d746-750); in assay [1]; at EGFR L858R) was not below 8.00 in each case.

With `C[C@@H](Oc1cc(-c2cnn(C)c2)cc2ncnc(Nc3ccc4ncsc4c3)c12)C1CC1` [Example 65, (R)-N-(5-(1-cyclopropylethoxy)-7-(1-methyl-1H-pyrazol-4-yl)quinazolin-4-yl)benzo[d]thiazol-6-amine], the pIC50 (at EGFR (d746-750); in assay [1]; on EGFR L858R) was not below 8.00 each time.

With `COC[C@@H](C)Oc1cc(-n2cc([C@H](C)O)cn2)cc2ncnc(Nc3ccc4ncsc4c3F)c12` [Example A20, (S)-1-(1-(4-((7-fluorobenzo[d]thiazol-6-yl)amino)-5-(((R)-1-methoxypropan-2-yl)oxy)quinazolin-7-yl)-1H-pyrazol-4-yl)ethan-1-ol, OR (R)-1-(1-(4-((7-fluorobenzo[d]thiazol-6-yl)amino)-5-(((R)-1-methoxypropan-2-yl)oxy)quinazolin-7-yl)-1H-pyrazol-4-yl)ethan-1-ol], the negative logarithm of the IC50 (pIC50) (at EGFR (d746-750); in assay [1]; on EGFR L858R) was not below 8.00 throughout.

Turning to `Cn1cc(-c2cc(O[C@@H]3CC[C@H]3O)c3c(Nc4ccc5ncsc5c4)ncnc3c2)cn1` [Example 186, (1R,2R)-2-((4-(benzo[d]thiazol-6-ylamino)-7-(1-methyl-1H-pyrazol-4-yl)quinazolin-5-yl)oxy)cyclobutan-1-ol], the pIC50 (on EGFR (d746-750); in assay [1]; on EGFR L858R) was not below 8.00 throughout.

The record behind these values is US20260207602A1, “EGFR INHIBITORS” (Blueprint Medicines Corporation, priority 2022, published 2026).
